Measurements reported in patent publication US20110021556A1, “PYRROLIDINYL DERIVATIVES AND USES THEREOF” (Hoffman-La Roche, Inc., priority 2008, published 2011).
Structures can show the parent of a compound that is named as a salt.

Row | melting point | SMILES
1 | 120.9 to 123 °C | c1ccc(CC2(c3ccc4sccc4c3)CCNC2)cc1 (centres unmarked) (as salt: hydrochloride)
2 | 169.9 to 171.1 °C | c1ccc(CC2(c3ccc4[nH]ccc4c3)CCNC2)nc1 (centres unmarked)
